Experimental findings from patent US20230009608A1, “GRK2 INHIBITORS AND USES THEREOF” (Cygnal Therapeutics, Inc., priority 2020, published 2023) are described below.

Read-outs that look alike come from different tables or passages of the source.

Assay [1] deals with PAXF1657 control empty vector cell line. Put plainly: 7-day proliferation assay, PAXF1657 control empty vector cell line (Example 9). The conditions noted are these: 168 h; Cell Line: PAXF1657 empty vector (EV) cell line; 7-day; read-out: C: 7-day proliferation assay: IC50 GeoMean. Type of assay: cell-based. Put shortly:
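Isogenic PAXF1657 pairs differing in GRK2 level (stable cDNA overexpression or CRISPR knockout, each with matched control) are seeded and allowed to attach overnight. Inhibitors span 30 μM-0.0002 μM in 0.3% DMSO for 3 plus 4 days at 37° C, 5% CO2, with a medium change between.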

The target in another assay is T1, GRK2 (Homo sapiens, UniProt P25098).
T1 construct: purchased SignalChem A14-10G
T1 sequence (P25098 1-689): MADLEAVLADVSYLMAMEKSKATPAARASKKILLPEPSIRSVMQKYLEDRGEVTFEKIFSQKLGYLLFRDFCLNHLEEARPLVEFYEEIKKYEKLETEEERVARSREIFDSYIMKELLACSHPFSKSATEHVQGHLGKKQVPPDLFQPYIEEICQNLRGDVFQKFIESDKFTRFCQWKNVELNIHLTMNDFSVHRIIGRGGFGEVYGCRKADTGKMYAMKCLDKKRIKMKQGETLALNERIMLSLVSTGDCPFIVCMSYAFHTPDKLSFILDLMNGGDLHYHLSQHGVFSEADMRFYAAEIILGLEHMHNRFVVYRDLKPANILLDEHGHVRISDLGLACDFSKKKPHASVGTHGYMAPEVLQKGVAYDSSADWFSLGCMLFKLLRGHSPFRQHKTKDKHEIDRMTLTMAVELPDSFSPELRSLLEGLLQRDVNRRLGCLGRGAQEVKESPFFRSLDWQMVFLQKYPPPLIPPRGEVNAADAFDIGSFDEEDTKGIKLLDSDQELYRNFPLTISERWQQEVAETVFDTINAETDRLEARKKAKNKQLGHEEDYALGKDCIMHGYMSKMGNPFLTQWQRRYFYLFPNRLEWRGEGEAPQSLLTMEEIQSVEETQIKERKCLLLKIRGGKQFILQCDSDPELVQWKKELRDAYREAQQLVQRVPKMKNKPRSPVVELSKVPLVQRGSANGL
The assay can be described thus: GRK2 Inhibition Assay (TR-FRET, Example 7). The format is biochemical. The procedure:
Enzyme GRK2 (1 nM final concentration) was diluted in 25 mMv HEPES, 10 mM MgCl2, 2 mM DTT, 0.01% Tween-20, and 1 mM EGTA. Then the GRK2 mixture was added into ProxiPlate-384 white plate and pre-incubated for 30 min with test compounds at room temperature. ATP (7 μM final concentration) and Ulight TopoIIα (50 nM final concentration) were added into the assay plate to initiate the reaction and the mixture was incubated at room temperature for 90 min. Then, Eu anti-TopoIIα (0.12 nM final concentration), BSA (0.01% final concentration), and EDTA (11 mMv final concentration) in LANCE assay buffer were added into each well. After 60 min incubation time at room temperature, TR-FRET signal was measured by EnVision plate reader.

Setting [2] is: Enzyme Assay B, TR-FRET (Example 7), read-out: B: Enzymatic GRK2: IC50 (nM) (Example 7).
[3] abbreviates: TR-FRET GRK2 enzyme assay, read-out: B: Enzymatic GRK2: IC50 (nM) (Example 7).

As to `O=C(NCc1cccc(OS(=O)(=O)F)c1)c1cccc(NCc2nnc(-c3ccncc3)[nH]2)c1`, the IC50 is more than 30000 nM in assay [1] and 26 nM at GRK2.

With `O=C(NCc1ccccc1OS(=O)(=O)F)c1cccc(NCc2nnc(-c3ccncc3)[nH]2)c1`, the IC50 in assay [1] was 7640 nM; against GRK2 it was 12 nM. Turning to `O=C(NCCc1ccccc1OS(=O)(=O)F)c1cccc(NCc2nnc(-c3ccncc3)[nH]2)c1`, the IC50 in assay [1] turned out to be 13100 nM; against GRK2 it was 73 nM.

For the compound `O=C(NCc1ccc(OS(=O)(=O)F)cc1)c1cccc(NCc2nnc(-c3ccncc3)[nH]2)c1`, the IC50 in assay [1] was more than 30000 nM; against GRK2, 20 nM. Consider `O=C(NCc1ccccc1OS(=O)(=O)F)c1cccc(NCc2nnc(-c3ccncc3)n2CCCO)c1`, for which the values for the IC50 (in assay [1]; on GRK2) were more than 30000 nM and 17 nM, respectively.

For the compound `O=C(NCc1cccc(OS(=O)(=O)F)c1)c1cccc(NCc2nnc(-c3ccncc3)n2CCCO)c1`, the IC50 in assay [1] was more than 30000 nM; against GRK2, 50 nM. For the compound `Cn1c(CNc2cccc(C(=O)N[C@H]3CCOc4cc(Cl)ccc43)c2)nnc1-c1ccncn1`, the IC50 in assay [1] is more than 29400 nM; at GRK2 (setting [2]), 18 nM. Turning to `Cc1ccc2c(c1)[C@H](NC(=O)c1cccc(NCc3nnc(-c4ccncn4)n3C)c1)CC(C)(C)O2`, the IC50 is more than 30000 nM in assay [1] and 48 nM at GRK2 (setting [2]). Take `Cc1ccc2c(c1)[C@@H](NC(=O)c1cccc(NCc3nnc(-c4ccncn4)n3C)c1)CC(C)(C)O2`: the results for the IC50 (in assay [1]; at GRK2 (setting [2])) were more than 30000 nM and 240 nM, respectively. The corresponding values for `Cn1c(CNc2cccc(C(=O)N[C@@H]3CCOc4ccc(Br)cc43)c2)nnc1-c1ccncn1` are more than 30000 nM and 510 nM.

On to `Cn1c(CNc2cccc(C(=O)N[C@H]3CCOc4ccc(Br)cc43)c2)nnc1-c1ccncn1`, for which the IC50 in assay [1] was determined as 42.6 nM; on GRK2 (setting [2]), 2.6 nM.

Turning to `Cn1c(CNc2cccc(C(=O)N[C@@H]3CCOc4ccc(Cl)cc43)c2)nnc1-c1ccncn1`, the figures for the IC50 (in assay [1]; on GRK2 (setting [2])) were 33.9 nM and 2.9 nM, respectively. The corresponding values for `Cn1c(CNc2cccc(C(=O)N[C@H]3CCOc4ccc(Cl)cc43)c2)nnc1-c1ccncn1` are more than 30000 nM and 120 nM.

For the compound `Cn1c(CNc2cccc(C(=O)N[C@@H](C#N)c3c(F)cccc3Cl)c2)nnc1-c1ccncn1`, the IC50 at GRK2 (setting [3]) turned out to be 5.1 nM. With `Cn1c(CNc2cccc(C(=O)N[C@@H](C#N)c3ccccc3Br)c2)nnc1-c1ccncn1`, the IC50 on GRK2 (setting [3]) was found to be 4.1 nM. Still for that read-out and setting: with `Cn1c(CNc2cccc(C(=O)N[C@H](C#N)c3ccccc3Br)c2)nnc1-c1ccncn1` the figure was 4.5 nM; with `Cn1c(CNc2cccc(C(=O)N[C@@H](C#N)c3ccccc3C(F)(F)F)c2)nnc1-c1ccncn1`, 3.5 nM; with `COc1ccc([C@H](C#N)NC(=O)c2cccc(NCc3nnc(-c4ccncn4)n3C)c2)c(OC)c1`, 68 nM. For `COc1ccc([C@@H](C#N)NC(=O)c2cccc(NCc3nnc(-c4ccncn4)n3C)c2)c(OC)c1`, the IC50 at GRK2 (setting [3]) was 7.8 nM.

With `COc1ccccc1[C@H](NC(=O)c1cccc(NCc2nnc(-c3ccncn3)n2C)c1)c1nccn1C`, the IC50 at GRK2 (setting [3]) is 100 nM. Take `CCc1cnccc1CNC(=O)c1cccc(NCc2nnc(-c3ccncn3)n2[C@H]2CCC[C@@H](NC)C2)c1`: the IC50 at GRK2 (setting [3]) came to 3900 nM.

`CCc1cnccc1CNC(=O)c1cccc(NCc2nnc(-c3ccncn3)n2[C@@H]2CCC[C@@H](NC)C2)c1`: the IC50 at GRK2 (setting [3]) amounted to 1000 nM.

As for `CCc1cnccc1CNC(=O)c1cccc(NCc2nnc(-c3ccncn3)n2[C@H]2CC[C@@H](NC)C2)c1`, on GRK2 (setting [3]), the IC50 came to 190 nM. Still for that read-out and setting: with `CCc1cnccc1CNC(=O)c1cccc(NCc2nnc(-c3ccncn3)n2[C@H]2CC[C@H](NC)C2)c1` the figure was 920 nM; with `CCc1cnccc1CNC(=O)c1cccc(NCc2nnc(-c3ccncn3)n2[C@@H]2CC[C@@H](NC)C2)c1`, 230 nM; with `CCc1cnccc1CNC(=O)c1cccc(NCc2nnc(-c3ccncn3)n2[C@@H]2CC[C@H](NC)C2)c1`, 110 nM. In the case of `Cn1c(CNc2cccc(C(=O)N[C@H]3COc4ccccc43)c2)nnc1-c1ccncn1` [drawing 850], at GRK2 (setting [3]), the IC50 was found to be 3.4 nM.
